Results on 55 molecules are retold here after article PMC6792352, “Limited Chemical Structural Diversity Found to Modulate Thyroid Hormone Receptor in the Tox21 Chemical Library” (Environmental Health Perspectives, 2019).

Counter-ions that a name gives are not always drawn. Non-standard residues stand in square brackets, D forms with d. Residues, ends and D or L forms follow the SMILES beside them. pGlu = O=C1CC[C@@H](C(=O)O)N1

The nature of one data set: in vitro. To be noted: rat, gh3-tre-luc cells, AC50 (uM) modified / 1000.
Turning to `CCC1(C2=NCCN2)Cc2ccccc2O1` (stereo not shown) [Efaroxan], the CC50 at 24 h was more than 50 µM.
On the same count and under the same terms, with `O=C1Nc2ccc(Cl)cc2[C@@](C#CC2CC2)(C(F)(F)F)O1` [Efavirenz] the figure was 31.4 µM.
Still for that read-out and setting: with `NCCCC(N)(C(=O)O)C(F)F` (stereo not shown) [Eflornithine hydrochloride] the figure was more than 50 µM.
Still for that read-out and setting: the value for `CCOC(=O)COc1ccc2c(=O)cc(-c3ccccc3)oc2c1` [Efloxate] was more than 50 µM; that for `CC1=C(C(=O)OCCN(Cc2ccccc2)c2ccccc2)C(c2cccc([N+](=O)[O-])c2)C(P2(=O)OCC(C)(C)CO2)=C(C)N1` (stereo not shown) [Efonidipine] was 23.8 µM.
In turn, `O=C(O)CN(CCOCCOCCN(CC(=O)O)CC(=O)O)CC(=O)O` [Egtazic Acid] registered a CC50 at 24 h of more than 50 µM.
The molecule `CCc1cc(S(=O)(=O)O)c2cc(C(C)C)cccc1-2` [Egualen sodium] yielded a 50% cytotoxic concentration (CC50) at 24 h of more than 50 µM.
`CC/C=C\C/C=C\C/C=C\C/C=C\C/C=C\CCCC(=O)O` [Eicosapentaenoic acid] gave a CC50 at 24 h of more than 50 µM.
Same read-out and setting: the value for `CN1CCC[C@@H]1Cc1c[nH]c2ccc(CCS(=O)(=O)c3ccccc3)cc12` [Eletriptan] was 21.1 µM; that for `OC(CN1CCC(Cc2ccc(F)cc2)CC1)c1ccc(Cl)cc1` (stereo not shown) [Eliprodil] was more than 50 µM.
On the same count and under the same terms, with `O=c1oc2c(O)c(O)cc3c(=O)oc4c(O)c(O)cc1c4c23` [Ellagic acid] the figure was more than 50 µM; with `CN1CCN(c2ccccc2/C=C2\SCCN(c3ccc(Cl)c(Cl)c3)C2=O)CC1` [Elzasonan], 8.33 µM; with `CCOCCn1c(N2CCCN(C)CC2)nc2ccccc21` [Emedastine difumarate], more than 50 µM.
Still for that read-out and setting: the value for `CC[C@H]1CN2CCc3cc(OC)c(OC)cc3[C@@H]2C[C@@H]1C[C@H]1NCCc2cc(OC)c(OC)cc21` [Emetine dihydrochloride] was 0.065 µM; that for `CCOC(=O)c1ccc(OCCN2C[C@H](O)[C@@H](O)[C@H](O)[C@H]2CO)cc1` [Emiglitate] was more than 50 µM; that for `Nc1nc(=O)n([C@@H]2CS[C@H](CO)O2)cc1F` [Emtricitabine] was more than 50 µM.
As to `C[C@H](N[C@@H](CCc1ccccc1)C(=O)O)C(=O)N1CCC[C@H]1C(=O)O` [Enalapril acid], the CC50 at 24 h was more than 50 µM.
As to `CCOC(=O)[C@H](CCc1ccccc1)N[C@@H](C)C(=O)N1CCC[C@H]1C(=O)O` [Enalapril], the CC50 at 24 h was more than 50 µM.
On to `COc1ccc(C(=O)Nc2ccccc2CCC2CCCCN2C)cc1` (stereo not shown) [Encainide hydrochloride], for which the CC50 at 24 h was more than 50 µM.
On the same count and under the same terms, with `O=C(O)[C@@H]1[C@H](C(=O)O)[C@H]2CC[C@@H]1O2` [Endothal] the figure was more than 90 µM; with `CCCCCCCCCCCCCCCCCCCCCC(=O)Nc1ccn([C@@H]2O[C@H](CO)[C@@H](O)[C@@H]2O)c(=O)n1` [Enocitabine], more than 50 µM; with `CCn1cc(C(=O)O)c(=O)c2cc(F)c(N3CCNCC3)nc21` [Enoxacin], more than 20 µM.
For `CSc1ccc(C(=O)c2[nH]c(=O)[nH]c2C)cc1` [Enoximone], the CC50 at 24 h is more than 50 µM.
On the same count and under the same terms, the value for `CCCn1c(=O)[nH]c(=O)c2[nH]cnc21` [Enprofylline] was more than 50 µM; that for `CCN1CCN(c2cc3c(cc2F)c(=O)c(C(=O)O)cn3C2CC2)CC1` [Enrofloxacin] was more than 50 µM; that for `O=S(=O)(O)c1ccc2[nH]c(-c3ccccc3)nc2c1` [Ensulizole] was more than 90 µM.
In turn, `CCN(CC)C(=O)/C(C#N)=C/c1cc(O)c(O)c([N+](=O)[O-])c1` [Entacapone] had a CC50 at 24 h of more than 50 µM.
On the same count and under the same terms, the value for `C=C1[C@H](CO)[C@@H](O)C[C@@H]1n1cnc2c(=O)[nH]c(N)nc21` [Entecavir] was more than 50 µM; that for `O=C1OC[C@@H](Cc2cccc(O)c2)[C@@H]1Cc1cccc(O)c1` [Enterolactone] was more than 30 µM.
On the same count and under the same terms, with `Cn1cc(C2=C(c3cn(C4CCN(Cc5ccccn5)CC4)c4ccccc34)C(=O)NC2=O)c2ccccc21` [Enzastaurin] the figure was more than 50 µM; with `CC(/C=C1\SC(=S)N(CC(=O)O)C1=O)=C\c1ccccc1` [Epalrestat], 42.6 µM; with `CCc1ccc(C(=O)C(C)CN2CCCCC2)cc1` (stereo not shown) [Eperisone hydrochloride], more than 50 µM.
The same measure, in the same setting: with `CN[C@@H](C)[C@H](O)c1ccccc1` [Ephedrine hydrochloride] the figure was more than 50 µM; with `ClCC1CO1` (stereo not shown) [Epichlorohydrin], more than 90 µM.
The molecule `NC1=NCC2c3ccccc3Cc3ccccc3N12` (stereo not shown) [Epinastine hydrochloride] came in with a CC50 at 24 h of more than 50 µM.
On the same count and under the same terms, the value for `CNC[C@H](O)c1ccc(O)c(O)c1` [Epinephrine bitartrate] was more than 90 µM.
`COc1cc(C)nc(-n2nc(C)cc2OC)n1` [Epirizole] yielded a CC50 at 24 h of more than 20 µM.
Still for that read-out and setting: the value for `COC(=O)[C@@H]1CC2=CC(=O)CC[C@]2(C)[C@@]23O[C@@H]2C[C@@]2(C)[C@@H](CC[C@@]24CCC(=O)O4)[C@H]13` [Eplerenone] was more than 50 µM; that for `CCCCC[C@H](O)/C=C/[C@@H]1[C@H]2C/C(=C/CCCC(=O)O)O[C@H]2C[C@H]1O` [Epoprostenol sodium] was more than 50 µM; that for `C/C(=C\c1csc(C)n1)[C@@H]1C[C@@H]2O[C@]2(C)CCC[C@H](C)[C@H](O)[C@@H](C)C(=O)C(C)(C)[C@@H](O)CC(=O)O1` [Epothilone B] was 0.00955 µM.
Still for that read-out and setting: the value for `CCOC(CN1CCN(CC(C)C(=O)c2ccccc2)CC1)c1ccccc1` (stereo not shown) [Eprazinone dihydrochloride] was more than 50 µM.
Same read-out and setting: the value for `CC[C@H](C)[C@H]1O[C@]2(C=C[C@@H]1C)C[C@@H]1C[C@@H](C/C=C(\C)[C@@H](O[C@H]3C[C@H](OC)[C@@H](O[C@H]4C[C@H](OC)[C@H](NC(C)=O)[C@H](C)O4)[C@H](C)O3)[C@@H](C)/C=C/C=C3\CO[C@@H]4[C@H](O)C(C)=C[C@@H](C(=O)O1)[C@]34O)O2` [Eprinomectin B1a] was 7.24 µM; that for `CC(C)(C)NC(=O)[C@H]1CC[C@H]2[C@@H]3CC=C4C=C(C(=O)O)CC[C@]4(C)[C@H]3CC[C@]12C` [Epristeride] was more than 50 µM.

Still in this data set, the particulars now being: rat, gh3-tre-luc cells, AC50 (uM) modified / 1000, Tox21_110001=Tox21_110520; viability, 1 nM T3 present, 24 h.
In turn, `C[C@]12C[C@H]3S[C@H]3C[C@@H]1CC[C@@H]1[C@@H]2CC[C@]2(C)[C@@H](O)CC[C@@H]12` [Epitiostanol] returned a CC50 at 24 h of more than 20 µM.

Staying with this data set, now noted: rat, gh3-tre-luc cells, AC50 (uM) modified / 1000, Tox21_110001=Tox21_111058; viability, 1 nM T3 present, 24 h.
Consider `C[C@]12CC[C@H]3[C@@H](CCC4=CC(=O)CC[C@@]43C)[C@@H]1CC[C@H]2O` [Epitestosterone], for which the CC50 at 24 h was more than 50 µM.

Staying with this data set, now noted: rat, gh3-tre-luc cells, AC50 (uM) modified / 1000, Tox21_110001=Tox21_111120; viability, 1 nM T3 present, 24 h.
Regarding `ClC1=C(Cl)[C@]2(Cl)[C@@H]3[C@H]4C[C@H]([C@@H]5O[C@H]45)[C@@H]3[C@@]1(Cl)C2(Cl)Cl` [Endrin], the CC50 at 24 h is 34.4 µM.

Still in this data set, the particulars now being: rat, gh3-tre-luc cells, AC50 (uM) modified / 1000, Tox21_110001=Tox21_111742; viability, 1 nM T3 present, 24 h.
`c1cc2c(c(N3CCNCC3)c1)OCCO2` [Eltoprazine hydrochloride] showed a CC50 at 24 h of more than 50 µM.

Staying with this data set, now noted: rat, gh3-tre-luc cells, AC50 (uM) modified / 1000, Tox21_110001=Tox21_112042; viability, 1 nM T3 present, 24 h.
Regarding `CC(=O)[C@H]1CC[C@H]2[C@@H]3CC[C@@H]4C[C@H](O)CC[C@]4(C)[C@H]3CC[C@]12C` [Eltanolone], the CC50 at 24 h was more than 50 µM.

Staying with this data set, now noted: rat, gh3-tre-luc cells, AC50 (uM) modified / 1000, Tox21_110001=Tox21_112426; viability, 1 nM T3 present, 24 h.
With `FC(F)OC(F)(F)C(F)Cl` (stereo not shown) [Enflurane], the CC50 at 24 h was more than 50 µM.

The data set is the same for the next values; noted with them: rat, gh3-tre-luc cells, AC50 (uM) modified / 1000, Tox21_110001=Tox21_112815; viability, 1 nM T3 present, 24 h.
As to `CC[C@H](C)[C@H](NC(=O)[C@H](Cc1ccccc1)NC(=O)[C@H](C)NC(=O)[C@H](CC(=O)O)NC(=O)[C@H](CCCCN)NC(=O)[C@H](CO)NC(=O)[C@@H]1CCCN1C(=O)[C@@H]1CCC(=O)N1)C(=O)NCC(=O)N[C@@H](CC(C)C)C(=O)N[C@@H](CCSC)C(N)=O` [Eledoisin] ([pGlu]PSKDAFIGLM-NH2), the CC50 at 24 h is more than 50 µM.

The same data set, now with this note: rat, gh3-tre-luc cells, AC50 (uM) modified / 1000, Tox21_110001=Tox21_200166; viability, 1 nM T3 present, 24 h.
`FC(F)OC(F)(F)C(F)Cl` (stereo not shown) [Enflurane] registered a cytotoxic concentration (CC50) at 24 h of more than 90 µM.

Still in this data set, the particulars now being: rat, gh3-tre-luc cells, AC50 (uM) modified / 1000, Tox21_110001=Tox21_202365; viability, 1 nM T3 present, 24 h.
With `O=S1OCC2C(CO1)C1(Cl)C(Cl)=C(Cl)C2(Cl)C1(Cl)Cl` (stereo not shown) [Endosulfan], the cytotoxic concentration (CC50) at 24 h was 55.9 µM.

Still in this data set, the particulars now being: rat, gh3-tre-luc cells, AC50 (uM) modified / 1000, Tox21_110001=Tox21_202607; viability, 1 nM T3 present, 24 h.
As for `BrCC1CO1` (stereo not shown) [Epibromohydrin], the CC50 at 24 h is more than 90 µM.

Staying with this data set, now noted: rat, gh3-tre-luc cells, AC50 (uM) modified / 1000, Tox21_110001=Tox21_300613; viability, 1 nM T3 present, 24 h.
With `ClC1=C(Cl)[C@]2(Cl)[C@@H]3[C@H]4C[C@H]([C@@H]5O[C@H]45)[C@@H]3[C@@]1(Cl)C2(Cl)Cl` [Endrin], the CC50 at 24 h is more than 90 µM.

Still in this data set, the particulars now being: rat, gh3-tre-luc cells, AC50 (uM) modified / 1000, Tox21_110001=Tox21_300657; viability, 1 nM T3 present, 24 h.
`O=S1OCC2C(CO1)C1(Cl)C(Cl)=C(Cl)C2(Cl)C1(Cl)Cl` (stereo not shown) [Endosulfan]: it took 37.5 µM to reach half-maximal cytotoxicity (CC50 at 24 h).

Staying with this data set, now noted: rat, gh3-tre-luc cells, AC50 (uM) modified / 1000, Tox21_110001=Tox21_300782; viability, 1 nM T3 present, 24 h.
Molecule `O=S1(=O)OCC2C(CO1)C1(Cl)C(Cl)=C(Cl)C2(Cl)C1(Cl)Cl` (stereo not shown) [Endosulfan sulfate] yielded a CC50 at 24 h of 56.1 µM.

Still in this data set, the particulars now being: rat, gh3-tre-luc cells, AC50 (uM) modified / 1000, Tox21_110001=Tox21_300787; viability, 1 nM T3 present, 24 h.
`CC[C@H](C)[C@H]1O[C@]2(C=C[C@@H]1C)C[C@@H]1C[C@@H](C/C=C(\C)[C@@H](O[C@H]3C[C@H](OC)[C@@H](O[C@H]4C[C@H](OC)[C@@H](NC)[C@H](C)O4)[C@H](C)O3)[C@@H](C)/C=C/C=C3\CO[C@@H]4[C@H](O)C(C)=C[C@@H](C(=O)O1)[C@]34O)O2` [Emamectin benzoate]: half-maximal cytotoxicity (CC50 at 24 h) was put at 1.42 µM.

The data set is the same for the next values; noted with them: rat, gh3-tre-luc cells, AC50 (uM) modified / 1000, Tox21_110001=Tox21_301581; viability, 1 nM T3 present, 24 h.
As to `O=S1OC[C@@H]2[C@H](CO1)[C@]1(Cl)C(Cl)=C(Cl)[C@@]2(Cl)C1(Cl)Cl` (stereo partly shown) [Endosulfan I], the CC50 at 24 h was found to be 69.4 µM.

One may read the CC50 as the concentration giving 50% cytotoxicity. High values mean better tolerance by the cells, low ones harm at low concentration.
